# Key:
# HEK293 = test: Cytotoxicity against HEK293 cells assessed as reduction in cell growth after 3 days by MTT assay; assay type: cell-based; conditions: Homo sapiens, HEK293, 72 h
# HT-29 [1] = test: Cytotoxicity against human HT-29 cells assessed as reduction in cell growth after 3 days by MTT assay; assay type: functional, cell-based; conditions: HT-29, 72 h
# MCF7 = test: Cytotoxicity against human MCF7 cells assessed as reduction in cell growth after 3 days by MTT assay; assay type: functional, cell-based; conditions: MCF7, 72 h
# [2] = Therapeutic index, ratio of IC50 for HEK293 cells to IC50 for human HT-29 cells; assay type: cell-based; conditions: HEK293 cells versus HT-29 cells, read-out: Ratio IC50
# [3] = Therapeutic index, ratio of IC50 for HEK293 cells to IC50 for human MCF7 cells; assay type: cell-based; conditions: HEK293 cells versus MCF7 cells, read-out: Ratio IC50
# HT-29 [4] = test: Downregulation of VEGFA-165 secretion in human HT-29 cells assessed as protein secretion levels at 3 ug/ml after 72 hrs by ELISA relative to control; assay type: functional
# HT-29 [5] = test: Downregulation of VEGFA gene expression in human HT-29 cells assessed as gene expression levels at 3 ug/ml after 48 hrs by RT-qPCR analysis relative to control; assay type: functional
# HT-29 [6] = test: Downregulation of TERT gene expression in human HT-29 cells assessed as gene expression levels at 3 ug/ml after 48 hrs by RT-qPCR analysis relative to control; assay type: functional
# HT-29 [7] = test: Downregulation of c-Myc gene expression in human HT-29 cells assessed as gene expression levels at 3 ug/ml after 48 hrs by RT-qPCR analysis relative to control; assay type: functional
# HT-29 [8] = test: Downregulation of VEGFA-165 secretion in human HT-29 cells assessed as protein secretion levels at 15 ug/ml after 72 hrs by ELISA relative to control; assay type: functional
# HT-29 [9] = test: Downregulation of VEGFA gene expression in human HT-29 cells assessed as gene expression levels at 15 ug/ml after 48 hrs by RT-qPCR analysis relative to control; assay type: functional
# HT-29 [10] = test: Downregulation of TERT gene expression in human HT-29 cells assessed as gene expression levels at 15 ug/ml after 48 hrs by RT-qPCR analysis relative to control; assay type: functional
# HT-29 [11] = test: Downregulation of c-Myc gene expression in human HT-29 cells assessed as gene expression levels at 15 ug/ml after 48 hrs by RT-qPCR analysis relative to control; assay type: functional
# HT-29 [12] = test: Downregulation of VEGFA-165 secretion in human HT-29 cells assessed as protein secretion levels at 5 ug/ml after 72 hrs by ELISA relative to control; assay type: functional
# HT-29 [13] = test: Downregulation of VEGFA gene expression in human HT-29 cells assessed as gene expression levels at 5 ug/ml after 48 hrs by RT-qPCR analysis relative to control; assay type: functional
# HT-29 [14] = test: Downregulation of TERT gene expression in human HT-29 cells assessed as gene expression levels at 5 ug/ml after 48 hrs by RT-qPCR analysis relative to control; assay type: functional
# HT-29 [15] = test: Downregulation of c-Myc gene expression in human HT-29 cells assessed as gene expression levels at 5 ug/ml after 48 hrs by RT-qPCR analysis relative to control; assay type: functional
# HT-29 [16] = test: Downregulation of VEGFA-165 secretion in human HT-29 cells assessed as protein secretion levels at 20 ug/ml after 72 hrs by ELISA relative to control; assay type: functional
# HT-29 [17] = test: Downregulation of VEGFA gene expression in human HT-29 cells assessed as gene expression levels at 20 ug/ml after 48 hrs by RT-qPCR analysis relative to control; assay type: functional
# HT-29 [18] = test: Downregulation of TERT gene expression in human HT-29 cells assessed as gene expression levels at 20 ug/ml after 48 hrs by RT-qPCR analysis relative to control; assay type: functional
# HT-29 [19] = test: Downregulation of c-Myc gene expression in human HT-29 cells assessed as gene expression levels at 20 ug/ml after 48 hrs by RT-qPCR analysis relative to control; assay type: functional
smiles,measurement,setting,value
Oc1ccc(-c2cccc(O)c2)cc1,IC50,HEK293,31 µg/mL
same,IC50,HT-29 [1],3.4 µg/mL
same,IC50,MCF7,> 100 µg/mL
same,selectivity ratio,[2],9
same,selectivity ratio,[3],9
same,Activity,HT-29 [4],52%
same,Activity,HT-29 [5],35%
same,Activity,HT-29 [6],30%
same,Activity,HT-29 [7],39%
Nc1ccccc1-c1ccccc1,IC50,HEK293,54.9 µg/mL
same,IC50,HT-29 [1],16 µg/mL
same,IC50,MCF7,2.9 µg/mL
same,selectivity ratio,[2],3.3
same,selectivity ratio,[3],19
same,Activity,HT-29 [8],91%
same,Activity,HT-29 [9],65%
same,Activity,HT-29 [10],56%
same,Activity,HT-29 [11],53%
C=CCc1ccc(O)c(-c2ccc(O)c(CC=C)c2)c1 [HONOKIOL],IC50,HEK293,9.3 µg/mL
same,IC50,MCF7,5 µg/mL
same,selectivity ratio,[2],1.5
same,selectivity ratio,[3],1.9
same,Activity,HT-29 [12],55%
same,Activity,HT-29 [13],36%
same,Activity,HT-29 [14],45%
same,Activity,HT-29 [15],45%
COc1ccc(-c2cccc(N)c2)cc1OC,IC50,HEK293,20 µg/mL
same,IC50,HT-29 [1],4 µg/mL
same,IC50,MCF7,> 100 µg/mL
same,selectivity ratio,[2],5
same,selectivity ratio,[3],< 0.2
same,Activity,HT-29 [4],42%
same,Activity,HT-29 [5],57%
same,Activity,HT-29 [6],90%
same,Activity,HT-29 [7],40%
Oc1ccc(-c2ccccc2O)cc1,IC50,HEK293,54 µg/mL
same,IC50,HT-29 [1],1.4 µg/mL
same,IC50,MCF7,> 100 µg/mL
same,selectivity ratio,[2],38
same,Activity,HT-29 [4],62%
same,Activity,HT-29 [5],16%
same,Activity,HT-29 [6],11%
same,Activity,HT-29 [7],11%
COc1ccccc1-c1ccccc1O,IC50,HEK293,54 µg/mL
same,IC50,HT-29 [1],2.7 µg/mL
same,IC50,MCF7,> 100 µg/mL
same,selectivity ratio,[2],20
same,selectivity ratio,[3],< 0.5
same,Activity,HT-29 [4],33%
same,Activity,HT-29 [5],17%
same,Activity,HT-29 [6],3%
same,Activity,HT-29 [7],6%
Nc1cccc(-c2cccc(O)c2)c1,IC50,HEK293,50.1 µg/mL
same,IC50,HT-29 [1],54 µg/mL
same,IC50,MCF7,99 µg/mL
same,selectivity ratio,[2],0.9
same,selectivity ratio,[3],0.5
Nc1cccc(-c2ccc(O)cc2)c1,IC50,HEK293,> 100 µg/mL
same,IC50,HT-29 [1],5.4 µg/mL
same,IC50,MCF7,6.5 µg/mL
same,selectivity ratio,[2],> 18
same,selectivity ratio,[3],> 15
same,Activity,HT-29 [4],55%
same,Activity,HT-29 [5],42%
same,Activity,HT-29 [6],78%
same,Activity,HT-29 [7],39%
Oc1ccccc1-c1ccccc1O,IC50,HEK293,57 µg/mL
same,IC50,HT-29 [1],2.5 µg/mL
same,IC50,MCF7,60 µg/mL
same,selectivity ratio,[2],23
same,selectivity ratio,[3],1
same,Activity,HT-29 [4],57%
same,Activity,HT-29 [5],23%
same,Activity,HT-29 [6],3%
same,Activity,HT-29 [7],18%
COc1ccc(-c2ccc(O)cc2)cc1OC,IC50,HEK293,> 100 µg/mL
same,IC50,HT-29 [1],26 µg/mL
same,IC50,MCF7,34 µg/mL
same,selectivity ratio,[2],> 4
same,selectivity ratio,[3],> 3
same,Activity,HT-29 [16],55%
same,Activity,HT-29 [17],41%
same,Activity,HT-29 [18],22%
same,Activity,HT-29 [19],87%
Oc1cccc(-c2cccc(O)c2)c1,IC50,HEK293,68 µg/mL
same,IC50,HT-29 [1],2.5 µg/mL
same,IC50,MCF7,51.6 µg/mL
same,selectivity ratio,[2],28
same,selectivity ratio,[3],1.3
same,Activity,HT-29 [4],50%
same,Activity,HT-29 [5],5%
same,Activity,HT-29 [6],29%
same,Activity,HT-29 [7],16%
Nc1ccc(-c2cccc(O)c2)cc1,IC50,HEK293,55 µg/mL
same,IC50,HT-29 [1],49.3 µg/mL
same,IC50,MCF7,> 100 µg/mL
same,selectivity ratio,[2],1.1
same,selectivity ratio,[3],< 0.6

# From ChEMBL document CHEMBL3813664, “Synthesis and evaluation of biphenyl derivatives as potential downregulators of VEGF protein secretion and telomerase-related gene expressions” (Bioorg Med Chem, 2016)
